System: LNCaP tumor-bearing mice
Test: Ex vivo biodistribution of 177Lu-labeled ligands in LNCaP tumor-bearing NRG mice
[1] = 4 h post-injection, listed as [177Lu]Lu-HTK03149

O=C([O-])CN1CCN(CC(=O)[O-])CCN(CC(=O)NCC2CCC(C(=O)NC(Cc3c4ccccc4cc4ccccc34)C(=O)NCCCCC(NC(=O)NC(CCCC(=O)O)C(=O)O)C(=O)O)CC2)CCN(CC(=O)[O-])CC1.[177Lu+3] (stereo not drawn) [[^177Lu]Lu-HTK03149]
Kidneys uptake [1]: 1.666 ± 0.378 %IA/g
Salivary glands uptake [1]: 0.051 ± 0.010 %IA/g
Tumor uptake [1]: 20.90 ± 2.988 %IA/g
Adrenal glands uptake (24 h post-injection): 0.073 ± 0.018 %IA/g
Blood uptake (24 h post-injection): 0.116 ± 0.007 %IA/g
Blood:Salivary gland uptake ratio (24 h post-injection): 2.37 ± 0.24
Bone uptake (24 h post-injection): 0.025 ± 0.003 %IA/g
Brain uptake (24 h post-injection): 0.006 ± 0.001 %IA/g
Fat uptake (24 h post-injection): 0.017 ± 0.002 %IA/g
Heart uptake (24 h post-injection): 0.065 ± 0.004 %IA/g
Intestines uptake (24 h post-injection): 0.086 ± 0.047 %IA/g
Kidneys uptake (24 h post-injection): 0.596 ± 0.109 %IA/g
Lacrimal glands uptake (24 h post-injection): 0.004 ± 0.005 %IA/g
Liver uptake (24 h post-injection): 0.103 ± 0.008 %IA/g
Lungs uptake (24 h post-injection): 0.122 ± 0.015 %IA/g
Muscle uptake (24 h post-injection): 0.017 ± 0.003 %IA/g
Pancreas uptake (24 h post-injection): 0.032 ± 0.005 %IA/g
Salivary glands uptake (24 h post-injection): 0.049 ± 0.007 %IA/g
Spleen uptake (24 h post-injection): 0.085 ± 0.012 %IA/g
Stomach uptake (24 h post-injection): 0.125 ± 0.112 %IA/g
Testes uptake (24 h post-injection): 0.047 ± 0.003 %IA/g
Thyroid uptake (24 h post-injection): 0.060 ± 0.002 %IA/g
Tumor uptake (24 h post-injection): 13.80 ± 2.876 %IA/g
Tumor:Blood uptake ratio (24 h post-injection): 120 ± 31.1
Tumor:Muscle uptake ratio (24 h post-injection): 842 ± 216
Tumor:Salivary gland uptake ratio (24 h post-injection): 286 ± 88.4
Adrenal glands uptake (72 h post-injection): 0.124 ± 0.052 %IA/g
Blood uptake (72 h post-injection): 0.067 ± 0.016 %IA/g
Blood:Salivary gland uptake ratio (72 h post-injection): 1.45 ± 0.69
Bone uptake (72 h post-injection): 0.026 ± 0.011 %IA/g
Brain uptake (72 h post-injection): 0.003 ± 0.002 %IA/g
Fat uptake (72 h post-injection): 0.042 ± 0.042 %IA/g
Heart uptake (72 h post-injection): 0.060 ± 0.014 %IA/g
Intestines uptake (72 h post-injection): 0.088 ± 0.034 %IA/g
Kidneys uptake (72 h post-injection): 0.679 ± 0.387 %IA/g
Lacrimal glands uptake (72 h post-injection): 0.006 ± 0.007 %IA/g
Liver uptake (72 h post-injection): 0.130 ± 0.034 %IA/g
Lungs uptake (72 h post-injection): 0.108 ± 0.022 %IA/g
Muscle uptake (72 h post-injection): 0.018 ± 0.003 %IA/g
Pancreas uptake (72 h post-injection): 0.033 ± 0.002 %IA/g
Salivary glands uptake (72 h post-injection): 0.051 ± 0.016 %IA/g
Stomach uptake (72 h post-injection): 0.140 ± 0.104 %IA/g
Testes uptake (72 h post-injection): 0.053 ± 0.008 %IA/g
Thyroid uptake (72 h post-injection): 0.079 ± 0.008 %IA/g
Tumor uptake (72 h post-injection): 17.1±4.70 %IA/g
Tumor:Blood uptake ratio (72 h post-injection): 258 ± 74.7
Tumor:Muscle uptake ratio (72 h post-injection): 985 ± 342
Tumor:Salivary gland uptake ratio (72 h post-injection): 349 ± 109
Tumor uptake (72 h post-injection, listed as [177Lu]Lu-HTK03149): 17.12 ± 4.702 %IA/g
Adrenal glands uptake (120 h post-injection): 0.024 ± 0.027 %IA/g
Blood uptake (120 h post-injection): 0.021 ± 0.006 %IA/g
Blood:Salivary gland uptake ratio (120 h post-injection): 0.75 ± 0.19
Bone uptake (120 h post-injection): 0.015 ± 0.007 %IA/g
Brain uptake (120 h post-injection): 0.002 ± 0.001 %IA/g
Fat uptake (120 h post-injection): 0.014 ± 0.009 %IA/g
Heart uptake (120 h post-injection): 0.034 ± 0.014 %IA/g
Intestines uptake (120 h post-injection): 0.069 ± 0.046 %IA/g
Kidneys uptake (120 h post-injection): 0.276 ± 0.064 %IA/g
Lacrimal glands uptake (120 h post-injection): 0.001 ± 0.002 %IA/g
Liver uptake (120 h post-injection): 0.079 ± 0.041 %IA/g
Lungs uptake (120 h post-injection): 0.086 ± 0.076 %IA/g
Muscle uptake (120 h post-injection): 0.012 ± 0.004 %IA/g
Pancreas uptake (120 h post-injection): 0.020 ± 0.007 %IA/g
Salivary glands uptake (120 h post-injection): 0.029 ± 0.007 %IA/g
Spleen uptake (120 h post-injection): 0.129 ± 0.079 %IA/g
Stomach uptake (120 h post-injection): 0.084 ± 0.041 %IA/g
Testes uptake (120 h post-injection): 0.033 ± 0.012 %IA/g
Thyroid uptake (120 h post-injection): 0.044 ± 0.015 %IA/g
Tumor uptake (120 h post-injection): 16.39 ± 10.99 %IA/g
Tumor:Blood uptake ratio (120 h post-injection): 780 ± 451
Tumor:Muscle uptake ratio (120 h post-injection): 1336 ± 566
Tumor:Salivary gland uptake ratio (120 h post-injection): 533 ± 218

Source: article PMC9475448, “What a difference a methylene makes: replacing Glu with Asp or Aad in the Lys-urea-Glu pharmacophore of PSMA-targeting radioligands to reduce kidney and salivary gland uptake” (Theranostics, 2022)
